Patent US20260102502A1, “C[…] COMPOSITIONS FOR TARGETED […]” (priority 2022, published 2026)

Assay: water solubility of free drug and dendrimer-drug conjugates

With `CCCCCCC(C)(C)c1cc(OC)c([C@@H]2C=C(CO)[C@@H]3C[C@H]2C3(C)C)c(OC)c1` [Hu308] the “Water Solubility Free drug*” value (free, unconjugated drug of GD-Hu308 (Table 4)) was less than 100 µg/mL and the solubility (water) was less than 100 µg/mL.
